Measurements published in ChEMBL document CHEMBL4507279, “Data for DCP probe BI-9627” (2021).

Key:
[1] = system: Tyrosine-protein kinase ABL1 (Homo sapiens), P00519 [H396P]; settings: Compound concentration 1000.0 nM
[2] = target: RAC-alpha serine/threonine-protein kinase (Homo sapiens) (UniProt P31749); settings: Compound concentration 1000.0 nM
[3] = target: RAC-gamma serine/threonine-protein kinase (Homo sapiens) (UniProt Q9Y243); settings: Compound concentration 1000.0 nM
[4] = target: ALK tyrosine kinase receptor (Homo sapiens) (UniProt Q9UM73); settings: Compound concentration 1000.0 nM
[5] = target: Serine/threonine-protein kinase B-raf (Homo sapiens) (UniProt P15056); settings: Compound concentration 1000.0 nM
[6] = target: Tyrosine-protein kinase BTK (Homo sapiens) (UniProt Q06187); settings: Compound concentration 1000.0 nM
[7] = target: Calcium/calmodulin-dependent protein kinase type 1G (Homo sapiens) (UniProt Q96NX5); settings: Compound concentration 1000.0 nM
Sequence of Calcium/calmodulin-dependent protein kinase type 1G (Homo sapiens) (Q96NX5 whole entry): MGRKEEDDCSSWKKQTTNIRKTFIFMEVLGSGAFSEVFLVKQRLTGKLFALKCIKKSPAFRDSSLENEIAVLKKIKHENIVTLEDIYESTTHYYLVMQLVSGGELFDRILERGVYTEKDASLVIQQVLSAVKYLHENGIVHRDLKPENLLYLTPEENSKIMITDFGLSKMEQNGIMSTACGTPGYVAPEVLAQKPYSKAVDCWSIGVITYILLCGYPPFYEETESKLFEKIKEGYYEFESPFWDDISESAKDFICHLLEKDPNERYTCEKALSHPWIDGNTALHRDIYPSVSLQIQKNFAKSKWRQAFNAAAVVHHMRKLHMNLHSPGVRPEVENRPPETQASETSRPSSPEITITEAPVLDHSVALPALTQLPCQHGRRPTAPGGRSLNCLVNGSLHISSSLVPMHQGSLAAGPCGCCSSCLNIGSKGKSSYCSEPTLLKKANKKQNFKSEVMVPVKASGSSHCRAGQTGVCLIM

[8] = target: Cyclin-dependent kinase 11B (Homo sapiens) (UniProt P21127); settings: Compound concentration 1000.0 nM
[9] = target: Dual specificity protein kinase CLK3 (Homo sapiens) (UniProt P49761); settings: Compound concentration 1000.0 nM
Sequence of Dual specificity protein kinase CLK3 (Homo sapiens) (P49761 whole entry, looked up): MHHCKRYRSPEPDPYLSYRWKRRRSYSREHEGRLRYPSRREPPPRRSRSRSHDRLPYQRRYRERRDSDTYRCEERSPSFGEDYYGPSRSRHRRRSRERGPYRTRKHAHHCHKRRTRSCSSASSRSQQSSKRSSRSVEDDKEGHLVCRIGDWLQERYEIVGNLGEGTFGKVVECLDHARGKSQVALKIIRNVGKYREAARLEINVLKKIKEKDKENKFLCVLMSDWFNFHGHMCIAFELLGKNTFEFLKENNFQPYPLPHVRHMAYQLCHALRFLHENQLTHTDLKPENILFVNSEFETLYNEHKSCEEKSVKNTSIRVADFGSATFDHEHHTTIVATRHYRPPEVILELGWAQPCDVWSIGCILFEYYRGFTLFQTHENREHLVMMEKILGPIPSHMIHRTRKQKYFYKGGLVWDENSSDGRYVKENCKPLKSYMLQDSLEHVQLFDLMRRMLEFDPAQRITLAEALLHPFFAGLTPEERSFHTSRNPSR

[10] = target: Death-associated protein kinase 1 (Homo sapiens) (UniProt P53355); settings: Compound concentration 1000.0 nM
[11] = system: Epidermal growth factor receptor (Homo sapiens), P00533 [L861Q]; settings: Compound concentration 1000.0 nM
[12] = target: Serine/threonine-protein kinase/endoribonuclease IRE1 (Homo sapiens) (UniProt O75460); settings: Compound concentration 1000.0 nM
Sequence of Serine/threonine-protein kinase/endoribonuclease IRE1 (Homo sapiens) (O75460 19-977 limits assumed): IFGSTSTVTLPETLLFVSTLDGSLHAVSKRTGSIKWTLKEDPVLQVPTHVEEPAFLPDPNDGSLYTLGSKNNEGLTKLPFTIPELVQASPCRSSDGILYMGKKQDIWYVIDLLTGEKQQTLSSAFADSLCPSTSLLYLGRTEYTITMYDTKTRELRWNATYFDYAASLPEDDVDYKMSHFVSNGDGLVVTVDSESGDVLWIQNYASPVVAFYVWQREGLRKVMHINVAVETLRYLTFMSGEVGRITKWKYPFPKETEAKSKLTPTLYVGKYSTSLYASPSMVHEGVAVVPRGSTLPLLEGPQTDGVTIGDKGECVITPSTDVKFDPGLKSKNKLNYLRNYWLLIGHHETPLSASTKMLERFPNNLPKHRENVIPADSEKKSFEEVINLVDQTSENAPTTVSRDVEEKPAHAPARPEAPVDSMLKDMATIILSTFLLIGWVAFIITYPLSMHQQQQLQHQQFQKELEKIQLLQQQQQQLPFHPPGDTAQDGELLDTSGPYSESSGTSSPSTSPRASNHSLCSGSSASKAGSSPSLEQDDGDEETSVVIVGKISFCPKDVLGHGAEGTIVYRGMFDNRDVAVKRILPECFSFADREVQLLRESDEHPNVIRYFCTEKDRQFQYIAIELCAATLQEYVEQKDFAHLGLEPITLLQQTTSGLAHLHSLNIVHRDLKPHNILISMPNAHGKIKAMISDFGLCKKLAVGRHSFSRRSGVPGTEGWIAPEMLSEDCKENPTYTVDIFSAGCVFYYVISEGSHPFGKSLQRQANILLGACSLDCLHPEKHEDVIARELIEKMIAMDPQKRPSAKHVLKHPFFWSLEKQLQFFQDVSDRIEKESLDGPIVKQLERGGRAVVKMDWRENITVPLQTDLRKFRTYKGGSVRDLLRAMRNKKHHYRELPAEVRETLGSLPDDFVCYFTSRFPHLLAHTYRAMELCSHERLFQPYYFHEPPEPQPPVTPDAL

[13] = target: Vascular endothelial growth factor receptor 1 (Homo sapiens) (UniProt P17948); settings: Compound concentration 1000.0 nM
Sequence of Vascular endothelial growth factor receptor 1 (Homo sapiens) (P17948 whole entry): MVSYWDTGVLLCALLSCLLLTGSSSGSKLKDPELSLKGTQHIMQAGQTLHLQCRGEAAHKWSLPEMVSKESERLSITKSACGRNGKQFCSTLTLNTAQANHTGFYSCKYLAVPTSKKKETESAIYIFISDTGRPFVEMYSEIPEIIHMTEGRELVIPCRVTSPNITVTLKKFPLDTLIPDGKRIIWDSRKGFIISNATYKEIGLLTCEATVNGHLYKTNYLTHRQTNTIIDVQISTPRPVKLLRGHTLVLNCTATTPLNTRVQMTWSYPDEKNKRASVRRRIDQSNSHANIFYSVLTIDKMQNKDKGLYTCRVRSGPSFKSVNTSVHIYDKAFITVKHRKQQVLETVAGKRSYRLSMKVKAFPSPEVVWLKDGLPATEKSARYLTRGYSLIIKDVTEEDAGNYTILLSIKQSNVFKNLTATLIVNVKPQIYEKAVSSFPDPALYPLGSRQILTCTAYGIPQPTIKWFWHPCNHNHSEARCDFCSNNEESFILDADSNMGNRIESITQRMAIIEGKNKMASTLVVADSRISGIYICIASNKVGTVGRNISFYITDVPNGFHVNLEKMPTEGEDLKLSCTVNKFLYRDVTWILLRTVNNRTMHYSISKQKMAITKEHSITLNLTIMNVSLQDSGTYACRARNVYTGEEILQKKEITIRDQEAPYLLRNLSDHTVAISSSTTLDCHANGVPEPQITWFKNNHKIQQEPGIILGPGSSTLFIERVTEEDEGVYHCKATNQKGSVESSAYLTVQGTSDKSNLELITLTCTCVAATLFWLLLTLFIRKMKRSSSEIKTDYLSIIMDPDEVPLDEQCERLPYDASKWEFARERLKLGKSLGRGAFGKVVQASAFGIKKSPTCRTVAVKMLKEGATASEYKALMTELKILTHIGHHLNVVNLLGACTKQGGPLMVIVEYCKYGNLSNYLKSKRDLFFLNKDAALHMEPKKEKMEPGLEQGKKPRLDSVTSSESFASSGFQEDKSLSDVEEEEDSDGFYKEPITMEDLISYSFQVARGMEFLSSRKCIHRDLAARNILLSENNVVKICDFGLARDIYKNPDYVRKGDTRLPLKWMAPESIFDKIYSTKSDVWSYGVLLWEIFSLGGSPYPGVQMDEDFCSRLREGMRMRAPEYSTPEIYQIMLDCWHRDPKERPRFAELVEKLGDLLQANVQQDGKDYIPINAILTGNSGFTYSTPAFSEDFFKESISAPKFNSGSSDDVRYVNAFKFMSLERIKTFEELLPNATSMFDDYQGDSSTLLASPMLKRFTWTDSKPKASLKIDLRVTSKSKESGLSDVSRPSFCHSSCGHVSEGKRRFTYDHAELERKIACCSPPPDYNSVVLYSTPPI

[14] = target: G protein-coupled receptor kinase 4 (Homo sapiens) (UniProt P32298); settings: Compound concentration 1000.0 nM
[15] = target: Mitogen-activated protein kinase kinase kinase kinase 1 (Homo sapiens) (UniProt Q92918); settings: Compound concentration 1000.0 nM
[16] = target: Insulin receptor-related protein (Homo sapiens) (UniProt P14616); settings: Compound concentration 1000.0 nM
[17] = target: Tyrosine-protein kinase ITK/TSK (Homo sapiens) (UniProt Q08881); settings: Compound concentration 1000.0 nM
[18] = target: Tyrosine-protein kinase Lyn (Homo sapiens) (UniProt P07948); settings: Compound concentration 1000.0 nM
[19] = target: Microtubule-associated serine/threonine-protein kinase 1 (Homo sapiens) (UniProt Q9Y2H9); settings: Compound concentration 1000.0 nM
[20] = target: Dual specificity mitogen-activated protein kinase kinase 4 (Homo sapiens) (UniProt P45985); settings: Compound concentration 1000.0 nM
[21] = target: Muscle, skeletal receptor tyrosine-protein kinase (Homo sapiens) (UniProt O15146); settings: Compound concentration 1000.0 nM
[22] = target: Myosin-IIIb (Homo sapiens) (UniProt Q8WXR4); settings: Compound concentration 1000.0 nM
[23] = target: Serine/threonine-protein kinase 38-like (Homo sapiens) (UniProt Q9Y2H1); settings: Compound concentration 1000.0 nM
[24] = target: Serine/threonine-protein kinase Nek4 (Homo sapiens) (UniProt P51957); settings: Compound concentration 1000.0 nM
[25] = target: Platelet-derived growth factor receptor beta (Homo sapiens) (UniProt P09619); settings: Compound concentration 1000.0 nM
[26] = system: Phosphatidylinositol 4,5-bisphosphate 3-kinase catalytic subunit alpha isoform (Homo sapiens), P42336 [E545K]; settings: Compound concentration 1000.0 nM
[27] = system: Phosphatidylinositol 4,5-bisphosphate 3-kinase catalytic subunit alpha isoform (Homo sapiens), P42336 [H1047Y]; settings: Compound concentration 1000.0 nM
[28] = system: Phosphatidylinositol 4,5-bisphosphate 3-kinase catalytic subunit alpha isoform (Homo sapiens), P42336 [M1043I]; settings: Compound concentration 1000.0 nM
[29] = target: Serine/threonine-protein kinase pim-1 (Homo sapiens) (UniProt P11309); settings: Compound concentration 1000.0 nM
[30] = target: Serine/threonine-protein kinase pim-3 (Homo sapiens) (UniProt Q86V86); settings: Compound concentration 1000.0 nM
[31] = target: Rho-associated protein kinase 1 (Homo sapiens) (UniProt Q13464); settings: Compound concentration 1000.0 nM
[32] = target: Proto-oncogene tyrosine-protein kinase ROS (Homo sapiens) (UniProt P08922); settings: Compound concentration 1000.0 nM
[33] = target: Ribosomal protein S6 kinase alpha-3 (Homo sapiens) (UniProt P51812); settings: Compound concentration 1000.0 nM
[34] = target: Ribosomal protein S6 kinase alpha-2 (Homo sapiens) (UniProt Q15349); settings: Compound concentration 1000.0 nM
[35] = target: Ribosomal protein S6 kinase alpha-6 (Homo sapiens) (UniProt Q9UK32); settings: Compound concentration 1000.0 nM
[36] = target: Uncharacterized serine/threonine-protein kinase SBK3 (Homo sapiens) (UniProt P0C264); settings: Compound concentration 1000.0 nM
Sequence of Uncharacterized serine/threonine-protein kinase SBK3 (Homo sapiens) (P0C264 whole entry): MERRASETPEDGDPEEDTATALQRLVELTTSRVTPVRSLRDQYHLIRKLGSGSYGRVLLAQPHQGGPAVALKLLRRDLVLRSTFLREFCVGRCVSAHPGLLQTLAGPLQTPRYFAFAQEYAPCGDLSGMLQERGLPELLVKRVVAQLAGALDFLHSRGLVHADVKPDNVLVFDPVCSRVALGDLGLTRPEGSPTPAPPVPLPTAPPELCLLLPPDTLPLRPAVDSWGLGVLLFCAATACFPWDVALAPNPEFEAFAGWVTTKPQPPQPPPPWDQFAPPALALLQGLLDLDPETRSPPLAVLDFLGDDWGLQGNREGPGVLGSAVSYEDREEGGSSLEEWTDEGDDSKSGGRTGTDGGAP

[37] = target: Proto-oncogene tyrosine-protein kinase Src (Homo sapiens) (UniProt P12931); settings: Compound concentration 1000.0 nM
[38] = target: TRAF2 and NCK-interacting protein kinase (Homo sapiens) (UniProt Q9UKE5); settings: Compound concentration 1000.0 nM
[39] = target: Non-receptor tyrosine-protein kinase TNK1 (Homo sapiens) (UniProt Q13470); settings: Compound concentration 1000.0 nM
[40] = target: 5-hydroxytryptamine receptor 7 (Homo sapiens) (UniProt P34969); settings: Compound concentration 10.0 uM
[41] = target: Alpha-2C adrenergic receptor (Homo sapiens) (UniProt P18825); settings: Compound concentration 10.0 uM
Sequence of Alpha-2C adrenergic receptor (Homo sapiens) (P18825 whole entry): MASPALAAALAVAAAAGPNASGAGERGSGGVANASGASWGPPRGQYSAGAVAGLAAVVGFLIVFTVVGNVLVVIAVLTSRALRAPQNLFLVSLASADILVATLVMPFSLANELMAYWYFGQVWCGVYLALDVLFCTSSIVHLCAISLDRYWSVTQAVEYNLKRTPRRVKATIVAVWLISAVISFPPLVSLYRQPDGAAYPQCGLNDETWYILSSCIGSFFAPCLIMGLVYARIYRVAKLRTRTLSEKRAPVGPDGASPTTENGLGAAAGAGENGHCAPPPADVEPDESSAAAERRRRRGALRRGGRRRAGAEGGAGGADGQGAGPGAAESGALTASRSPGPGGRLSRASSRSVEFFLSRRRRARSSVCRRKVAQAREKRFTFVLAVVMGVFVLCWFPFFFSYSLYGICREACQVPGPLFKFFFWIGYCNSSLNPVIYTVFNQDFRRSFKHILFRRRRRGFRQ

[42] = target: Beta-3 adrenergic receptor (Homo sapiens) (UniProt P13945); settings: Compound concentration 10.0 uM
Sequence of Beta-3 adrenergic receptor (Homo sapiens) (P13945 whole entry, looked up): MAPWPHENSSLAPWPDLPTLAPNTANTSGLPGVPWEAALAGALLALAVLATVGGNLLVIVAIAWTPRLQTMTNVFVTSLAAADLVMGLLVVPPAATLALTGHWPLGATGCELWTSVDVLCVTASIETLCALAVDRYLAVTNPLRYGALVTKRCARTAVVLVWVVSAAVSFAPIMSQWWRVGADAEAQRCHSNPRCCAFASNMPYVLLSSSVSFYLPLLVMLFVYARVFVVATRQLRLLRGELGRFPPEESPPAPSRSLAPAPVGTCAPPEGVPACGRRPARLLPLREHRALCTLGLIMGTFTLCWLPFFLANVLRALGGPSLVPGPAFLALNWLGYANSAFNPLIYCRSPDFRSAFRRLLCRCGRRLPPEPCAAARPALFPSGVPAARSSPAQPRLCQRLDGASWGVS

[43] = target: GABA-A receptor; anion channel (Rattus norvegicus) (UniProt O09028+P15431+P18506+P18508+P19969+P20236+P23574+P23576+P28471+P28473+P30191+P62813+P63079+P63138+Q91ZM7+Q9ES14); settings: Compound concentration 10.0 uM

Sequence of RAC-alpha serine/threonine-protein kinase (Homo sapiens) (P31749 whole entry): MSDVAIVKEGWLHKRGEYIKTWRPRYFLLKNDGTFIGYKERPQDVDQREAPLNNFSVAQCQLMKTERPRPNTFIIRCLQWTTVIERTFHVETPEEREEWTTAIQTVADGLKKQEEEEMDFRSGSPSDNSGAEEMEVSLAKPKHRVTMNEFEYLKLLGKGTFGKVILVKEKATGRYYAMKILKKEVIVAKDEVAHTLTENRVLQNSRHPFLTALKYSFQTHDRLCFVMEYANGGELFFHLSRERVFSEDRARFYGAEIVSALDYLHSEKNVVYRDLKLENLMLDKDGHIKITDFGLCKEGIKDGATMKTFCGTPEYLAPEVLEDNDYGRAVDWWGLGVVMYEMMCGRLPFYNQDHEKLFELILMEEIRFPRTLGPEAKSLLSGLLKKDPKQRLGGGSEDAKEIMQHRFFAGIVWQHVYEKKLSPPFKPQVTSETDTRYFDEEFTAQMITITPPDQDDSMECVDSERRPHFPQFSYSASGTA

SMILES: CC(=O)N1CCC(c2ccc(C(=O)NC3=NCCN3)cc2C(F)(F)F)CC1 [BI 0054]
- residual activity [1]: 100%
- residual activity [2]: 100%
- residual activity [3]: 100%
- residual activity [4]: 89%
- residual activity [5]: 100%
- residual activity [6]: 97%
- residual activity [7]: 100%
- residual activity [8]: 92%
- residual activity [9]: 100%
- residual activity [10]: 100%
- residual activity [11]: 100%
- residual activity [12]: 60%
- residual activity [13]: 100%
- residual activity [14]: 100%
- residual activity [15]: 100%
- residual activity [16]: 81%
- residual activity [17]: 91%
- residual activity [18]: 94%
- residual activity [19]: 87%
- residual activity [20]: 100%
- residual activity [21]: 90%
- residual activity [22]: 100%
- residual activity [23]: 90%
- residual activity [24]: 100%
- residual activity [25]: 95%
- residual activity [26]: 87%
- residual activity [27]: 100%
- residual activity [28]: 100%
- residual activity [29]: 100%
- residual activity [30]: 100%
- residual activity [31]: 0.5%
- residual activity [32]: 99%
- residual activity [33]: 99%
- residual activity [34]: 100%
- residual activity [35]: 94%
- residual activity [36]: 100%
- residual activity [37]: 99%
- residual activity [38]: 68%
- residual activity [39]: 84%
- inhibition [40]: 3.32%
- inhibition [41]: 16.3%
- inhibition [42]: 8.52%
- inhibition [43]: 25.3%

SMILES: CC(=O)N1CCC(c2ccc(C(=O)NC(=N)N)cc2C(F)(F)F)CC1 [BI 9627]
- residual activity [1]: 60%
- residual activity [2]: 100%
- residual activity [3]: 100%
- residual activity [4]: 93%
- residual activity [5]: 100%
- residual activity [6]: 100%
- residual activity [7]: 100%
- residual activity [8]: 100%
- residual activity [9]: 100%
- residual activity [10]: 100%
- residual activity [11]: 91%
- residual activity [12]: 100%
- residual activity [13]: 100%
- residual activity [14]: 100%
- residual activity [15]: 100%
- residual activity [16]: 100%
- residual activity [17]: 100%
- residual activity [18]: 100%
- residual activity [19]: 49%
- residual activity [20]: 95%
- residual activity [21]: 100%
- residual activity [22]: 100%
- residual activity [23]: 99%
- residual activity [24]: 100%
- residual activity [25]: 100%
- residual activity [26]: 76%
- residual activity [27]: 100%
- residual activity [28]: 100%
- residual activity [29]: 100%
- residual activity [30]: 100%
- residual activity [31]: 87%
- residual activity [32]: 100%
- residual activity [33]: 100%
- residual activity [34]: 90%
- residual activity [35]: 96%
- residual activity [36]: 100%
- residual activity [37]: 100%
- residual activity [38]: 100%
- residual activity [39]: 89%
- inhibition [40]: 16.3%
- inhibition [41]: 9.12%
- inhibition [42]: 5.47%
- inhibition [43]: 13.9%
